US20260234188A1, “CHEMOKINE-BINDING PEPTIDES” (Oxford University Innovation Limited, priority 2022, published 2026)
“Also recorded” adds a separate entry of the source. Ends that are not written are not given here. Peptide text beside a SMILES is read from it.

Experiments:
[1] = system: CC and CXC chemokines; assay: Chemokine-induced cell migration assays, pooled over chemokines (meta-analysis); format: cell-based, human; details: single HD2 mutations; nine CC and six CXC chemokines
Procedure: FIG. 16. Effect of HD2 alanine mutations on chemotaxis. […] All experiments were performed as three technical and three biological replicates, and individual data points are indicated, and coloured by the chemokine used. Statistically significant differences (compared to control, coloured blue), using Dunnett's test with correction for multiple comparisons, are indicated by asterisks: ****=P≤0.0001, ***=P≤0.001, **=P≤0.01, *=P≤[…] observations per group (three technical and three biological replicates for each chemokine). FIG. 16B, Faceted plots of change in median normalised cell count between alanine mutant and wild-type HD2 peptide obtained in cell migration assays (Y-axis, Δmedian normalised cell count) versus alanine mutated residue (X-axis). Chemokines used for each experiment are indicated in the strip to the right of each plot. Statistically significant differences compared to parental HD2 are shown as red dots. […] Scatterplot of Δmedian normalised cell count (Y-axis, obtained in cell migration assays) versus Δlog 2 E (obtained in phage-display experiments) for peptide:chemokine pairs. Individual data points indicate peptide chemokine pairs for which both cell migration and Δlog 2 E were available. Linear regression plot with 95% confidence interval, Spearman correlation coefficient (R) and statistical significance (p) are shown.
FIG. 19. […] All experiments were performed as at least three technical and three biological replicates, and individual data points are indicated, and coloured by the chemokine used, for all chemokines studied (n=16 chemokines). Statistically significant differences (compared to control, coloured blue), using Dunnett's test with correction for multiple comparisons, are indicated by asterisks: ****=P≤0.0001, ***=P≤0.001, **=P≤0.01, *=P≤0.05.
Briefly, cell migration assays use THP1 cells (human monocyte) and primary human buffy coat white cells (consisting of neutrophil granulocytes, monocytes, and lymphocytes), and activated T-cells. THP1 cells and primary monocytes respond to CCL2, CCL3, CCL5, CCL8 and CXCL4, granulocytes to CXCL1 and CXCL8, activated T-cells to CXCL9/10/11. Assays are performed in 96-well Boyden chambers, and migrated cells counted and characterized using and ATTUNE Flow Cytometer as described. Triplicate assays are performed at the EC80 dose of each chemokine at 10 μM peptide concentration.
The J:CXCR1 cell line was generated by transfecting Jurkat cells by electroporation with PvuI-linearized plasmid D1398 and selecting with blasticidin (Sigma-Aldrich, Cat #203350, […]). […] J:CXCR1 cells were cultured in RPMI-1640 media (Gibco), supplemented with 10% FBS and 5 mM L-Glutamine with blasticidin. For J:CXCR1 migration assays, 300,000 cells/well were added to the top chamber of a 3 μm Transwell insert (Corning) in 50 μL of migration media (RPMI-1640, 0.5% FBS, 4 mM L-Glutamine, 0.05% DMSO). The bottom chamber contained 150 μL of chemokine, with or without peptide. Cells were migrated at 37° C. in 5% CO2 for 4 hours. The plate was incubated on a shaking platform for 10 minutes, 800 rpm, at 37° C., and 150 μL from the bottom of the plate transferred into a U-bottom plate containing 50 μL of migration media.

[2] = system: panel of 24 biotinylated chemokines; assay: Phage-display screen of HD2 NNK saturation mutagenesis library; format: binding, human; details: for Chemokines Bound log2E 1-5 / Chemokines Bound log2E > 5: HD2 saturation mutants, chemokines on streptavidin beads, UniProt entry names

Compound | chemotaxis inhibition compared with HD2, meta-analysis [1] | Chemokines Bound log2E 1-5 [2] | Chemokines Bound log2E > 5 [2] | peak log 2 E ([2]; best mutation at each residue) | mean log 2 E compared to parental HD2 ([2]; over XC (CXC/CX3C) chemokines) | mean log 2 E compared to parental HD2 ([2]; over all chemokines)
CC(C)C[C@H](NC(=O)[C@@H]1CCCN1C(=O)[C@H](C)NC(=O)[C@H](Cc1ccc(O)cc1)NC(=O)[C@H](C)NC(=O)[C@@H](NC(=O)[C@H](Cc1ccc(O)cc1)NC(=O)[C@H](CC(=O)O)NC(=O)[C@H](CC(=O)O)NC(=O)[C@H](CCC(=O)O)NC(=O)[C@@H](N)CCC(=O)O)[C@@H](C)O)C(=O)N[C@H](C(=O)N[C@@H](CS)C(=O)N[C@@H](Cc1ccc(O)cc1)C(=O)N[C@@H](Cc1ccccc1)C(=O)N[C@@H](CS)C(N)=O)[C@@H](C)O [HD2_C16, EEDDYTAYAPLTCYFC] (H-EEDDYTAYAPLTCYFC-NH2; N-terminus assumed) | significant improvement over HD2 | CCL1, X3CL1, CXL10, CXL11,; also recorded: CXL14 | IL8 | highest peak log 2 E at that residue |  | 
EEDDWTAYAPLTCYFT-NH2 [HD2_W5, EEDDWTAYAPLTCYFT] | significant improvement over HD2 | CCL1, CCL11, CCL15, CCL17,; also recorded: CCL18, CCL19, CCL2, CCL22,; also recorded: CCL28, CCL3, CCL4, X3CL1,; also recorded: CXL11, SDF1, IL8 | CXL10, CXL13 |  | significant improvement | significant improvement
EEDDYTAYWPLTCYFT [A9W] | significant improvement over HD2 |  |  |  |  | 
EEDDYWAYAPLTCYFT [HD2_W6] | significant improvement over HD2 | CCL1, CCL17, CCL18, CCL2,; also recorded: CCL20, CCL3, CCL4, IL8 | CCL19, CCL25,; also recorded: CCL28, X3CL1,; also recorded: CXL10, CXL11,; also recorded: SDF1, CXL13,; also recorded: CXL14 |  | significant improvement | 
